Test results from PubChem BioAssay (NCI).
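GI50 is the concentration that inhibits growth by half. TGI marks complete inhibition of growth.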

Assays:
Assay in all cases: NCI-60 cell line screen, 384-well format
[1] = test system: BT-549 breast
[2] = test system: SNB-19 CNS
[3] = test system: TK-10 renal
[4] = test system: MCF7 breast
[5] = test system: UACC-62 melanoma
[6] = test system: UACC-257 melanoma
[7] = test system: LOX IMVI melanoma
[8] = test system: PC-3 prostate
[9] = test system: K-562 leukemia
[10] = test system: SK-OV-3 ovarian
[11] = test system: MDA-MB-435 melanoma
[12] = test system: SF-268 CNS
[13] = test system: OVCAR-8 ovarian
[14] = test system: RXF 393 renal
[15] = test system: SF-295 CNS
[16] = test system: UO-31 renal
[17] = test system: NCI-H322M lung
[18] = test system: T-47D breast
[19] = test system: NCI-H226 lung
[20] = test system: NCI-H23 lung
[21] = test system: NCI/ADR-RES ovarian
[22] = test system: ACHN renal
[23] = test system: HOP-62 NSCLC
[24] = test system: SF-539 CNS
[25] = test system: MOLT-4 leukemia
[26] = test system: SK-MEL-2 melanoma
[27] = test system: A549 NSCLC
[28] = test system: SN12C renal
[29] = test system: CAKI-1 renal
[30] = test system: COLO 205 colon
[31] = test system: HL-60(TB) leukemia
[32] = test system: OVCAR-5 ovarian
[33] = test system: HOP-92 NSCLC
[34] = test system: SK-MEL-28 melanoma
[35] = test system: MALME-3M melanoma
[36] = test system: OVCAR-4 ovarian
[37] = test system: DU-145 prostate
[38] = test system: SW-620 colon
[39] = test system: CCRF-CEM leukemia
[40] = test system: MDA-MB-468 breast
[41] = test system: HCT-116 colon
[42] = test system: NCI-H460 NSCLC
[43] = test system: IGROV1 ovarian
[44] = test system: HT29 colon
[45] = test system: HCC-2998 colon
[46] = test system: KM12 colon
[47] = test system: U251 glioblastoma
[48] = test system: RPMI-8226 leukemia
[49] = test system: MDA-MB-231 breast
[50] = test system: M14 melanoma
[51] = test system: SR leukemia
[52] = test system: OVCAR-3 ovarian
[53] = test system: HCT-15 colon
[54] = test system: 786-0 renal
[55] = test system: A498 renal
[56] = test system: SK-MEL-5 melanoma

`CCCC[C@@H](COC(=O)N(Cc1cccs1)Cc1cccs1)NC(=O)N[C@@H](CC(=O)OC)c1ccc2c(c1)OCO2` was tested, and the GI50 [1] was greater than 100 µM, the TGI [1] was greater than 100 µM and the GI50 [2] was greater than 100 µM. It also gave a TGI [2] greater than 100 µM, a GI50 [3] greater than 100 µM and a TGI [3] greater than 100 µM. The GI50 [4] was greater than 100 µM, the TGI [4] was greater than 100 µM and the GI50 [5] was 65 µM. It also gave a TGI [5] greater than 100 µM, a GI50 [6] greater than 100 µM and a TGI [6] greater than 100 µM. For the same molecule, the GI50 [7] was greater than 100 µM, the TGI [7] was greater than 100 µM and the GI50 [8] was greater than 100 µM. The TGI [8] was greater than 100 µM, the GI50 [9] was greater than 100 µM and the TGI [9] was greater than 100 µM. The GI50 [10] was greater than 100 µM, the TGI [10] was greater than 100 µM and the GI50 [11] was greater than 100 µM. The TGI [11] was greater than 100 µM, the GI50 [12] was greater than 100 µM and the TGI [12] was greater than 100 µM. The GI50 [13] was greater than 100 µM, the TGI [13] was greater than 100 µM and the GI50 [14] was 5.08 µM. It also gave a TGI [14] greater than 100 µM, a GI50 [15] greater than 100 µM and a TGI [15] greater than 100 µM. The GI50 [16] was 53.2 µM, the TGI [16] was greater than 100 µM and the GI50 [17] was greater than 100 µM. It also gave a TGI [17] greater than 100 µM, a GI50 [18] of 50.5 µM and a TGI [18] greater than 100 µM. It also gave a GI50 [19] greater than 100 µM, a TGI [19] greater than 100 µM and a GI50 [20] of 90.7 µM. The TGI [20] was greater than 100 µM, the GI50 [21] was 55.5 µM and the TGI [21] was greater than 100 µM. It also gave a GI50 [22] greater than 100 µM, a TGI [22] greater than 100 µM and a GI50 [23] greater than 100 µM. It also gave a TGI [23] greater than 100 µM, a GI50 [24] greater than 100 µM and a TGI [24] greater than 100 µM. It also gave a GI50 [25] of 2.28 µM, a TGI [25] of 4.54 µM and a GI50 [26] greater than 100 µM. For the same molecule, the TGI [26] was greater than 100 µM, the GI50 [27] was greater than 100 µM and the TGI [27] was greater than 100 µM. For the same molecule, the GI50 [28] was greater than 100 µM, the TGI [28] was greater than 100 µM and the GI50 [29] was greater than 100 µM. For the same molecule, the TGI [29] was greater than 100 µM, the GI50 [30] was greater than 100 µM and the TGI [30] was greater than 100 µM. The GI50 [31] was 14.6 µM, the TGI [31] was greater than 100 µM and the GI50 [32] was greater than 100 µM. It also gave a TGI [32] greater than 100 µM, a GI50 [33] greater than 100 µM and a TGI [33] greater than 100 µM. For the same molecule, the GI50 [34] was greater than 100 µM, the TGI [34] was greater than 100 µM and the GI50 [35] was greater than 100 µM. For the same molecule, the TGI [35] was greater than 100 µM, the GI50 [36] was greater than 100 µM and the TGI [36] was greater than 100 µM. The GI50 [37] was greater than 100 µM, the TGI [37] was greater than 100 µM and the GI50 [38] was greater than 100 µM. It also gave a TGI [38] greater than 100 µM, a GI50 [39] greater than 100 µM and a TGI [39] greater than 100 µM. For the same molecule, the GI50 [40] was greater than 100 µM, the TGI [40] was greater than 100 µM and the GI50 [41] was 7.28 µM. The TGI [41] was greater than 100 µM, the GI50 [42] was greater than 100 µM and the TGI [42] was greater than 100 µM. The GI50 [43] was greater than 100 µM, the TGI [43] was greater than 100 µM and the GI50 [44] was greater than 100 µM. For the same molecule, the TGI [44] was greater than 100 µM, the GI50 [45] was greater than 100 µM and the TGI [45] was greater than 100 µM. The GI50 [46] was greater than 100 µM, the TGI [46] was greater than 100 µM and the GI50 [47] was greater than 100 µM. The TGI [47] was greater than 100 µM, the GI50 [48] was 2.87 µM and the TGI [48] was 6.14 µM. It also gave a GI50 [49] greater than 100 µM, a TGI [49] greater than 100 µM and a GI50 [50] greater than 100 µM. It also gave a TGI [50] greater than 100 µM, a GI50 [51] of 6.03 µM and a TGI [51] greater than 100 µM. It also gave a GI50 [52] greater than 100 µM, a TGI [52] greater than 100 µM and a GI50 [53] greater than 100 µM. For the same molecule, the TGI [53] was greater than 100 µM, the GI50 [54] was greater than 100 µM and the TGI [54] was greater than 100 µM. For the same molecule, the GI50 [55] was greater than 100 µM, the TGI [55] was greater than 100 µM and the GI50 [56] was 83 µM. The TGI [56] was greater than 100 µM.
